Values after ≈ are worked out from the molar mass of the structure shown. Active and inactive are the calls of the source. The rule behind the calls is not given here.
Key:
[1] = tested on: Doru; experiment: Insecticidal activity against adult Doru luteipes (earwigs) in compound treated maize leaf assessed as reduction in distance walked in fully-treated arenas measured during 10 min compound exposure by behavioral locomotory bioassay; type: functional, organism-based
[2] = tested on: Spodoptera frugiperda; experiment: Insecticidal activity in second instar Spodoptera frugiperda (fall armyworm) in compound treated maize leaf assessed as mortality measured after 48 hr by concentration-mortality bioassay; type: functional
[3] = tested on: Spodoptera frugiperda; experiment: Relative toxicity in second instar Spodoptera frugiperda (fall armyworm) in compound treated maize leaf assessed as mortality measured by Time-mortality bioassay; type: functional
[4] = tested on: Spodoptera frugiperda; experiment: Insecticidal activity in second instar Spodoptera frugiperda (fall armyworm) in compound treated maize leaf assessed as mortality measured by Time-mortality bioassay; type: functional
[5] = tested on: Doru; experiment: Insecticidal activity against adult Doru luteipes (earwigs) in compound treated maize leaf assessed as mortality measured after 48 hr by concentration-mortality bioassay; type: functional
[6] = tested on: Doru; experiment: Relative toxicity in adult Doru luteipes (earwigs) in compound treated maize leaf assessed as mortality measured after 48 hr by concentration-mortality bioassay; type: functional
[7] = tested on: Doru; experiment: Insecticidal activity against adult Doru luteipes (earwigs) in compound treated maize leaf assessed as mortality measured by time-mortality bioassay; type: functional
[8] = tested on: Spodoptera frugiperda; experiment: Relative toxicity in second instar Spodoptera frugiperda (fall armyworm) in compound treated maize leaf assessed as mortality measured after 48 hr by concentration-mortality bioassay; type: functional
[9] = Selectivity ratio of LC50 for adult earwig species Doru luteipes to LC50 for second instar fall armyworm Spodoptera frugiperda by concentration-mortality bioassay; type: functional
[10] = tested on: Doru; experiment: Insecticidal activity against adult Doru luteipes (earwigs) in compound treated maize leaf assessed as reduction in walking velocity in fully-treated arenas measured during 10 min compound exposure by behavioral locomotory bioassay; type: functional, organism-based
[11] = tested on: Doru; experiment: Relative toxicity in adult Doru luteipes (earwigs) in compound treated maize leaf assessed as mortality measured by time-mortality bioassay; type: functional
[12] = tested on: Doru; experiment: Insecticidal activity against adult Doru luteipes earwig ) in compound treated maize leaf assessed as higher resting time in half-treated arenas measured during 10 min compound exposure by behavioral locomotory bioassay; type: functional, organism-based
[13] = tested on: Doru; experiment: Insecticidal activity against adult Doru luteipes earwigs) in compound treated maize leaf assessed as higher in number of stops in half-treated arenas measured during 10 min compound exposure by behavioral locomotory bioassay; type: functional, organism-based
[14] = tested on: Doru; experiment: Insecticidal activity against adult Doru luteipes (earwigs) in compound treated maize leaf assessed as insect avoidance by behavioral bioassay; type: functional, organism-based

Compound | inhibition [1] | LC50 [2] [µg/mL] | Ratio [3] | LT50 [4] [min] | LC50 [5] [µg/mL] | Ratio [6] | LT50 [7] [h] | Ratio [8] | RatioLC50 [9] | inhibition [10] | Ratio [11] | inhibition [12] | inhibition [13] | inhibition [14]
CC[C@H]1CCC[C@H](O[C@H]2CC[C@H](N(C)C)[C@@H](C)O2)[C@@H](C)C(=O)C2=C[C@@H]3[C@@H](C=C(C)[C@@H]4C[C@@H](O[C@@H]5O[C@@H](C)[C@H](OC)[C@@H](OC)[C@H]5OC)C[C@@H]34)[C@@H]2CC(=O)O1.CC[C@H]1CCC[C@H](O[C@H]2CC[C@H](N(C)C)[C@@H](C)O2)[C@@H](C)C(=O)C2=C[C@@H]3[C@@H](C=C[C@@H]4C[C@@H](O[C@@H]5O[C@@H](C)[C@H](OC)[C@@H](OC)[C@H]5OC)C[C@@H]34)[C@@H]2CC(=O)O1 | Active | 0.04 | 2.77 | 47.17 | 215 | 3528 | 11.43 | 99.47 | 3530 | Active | 6.61 | Active | Active | 
CC1(C)[C@H](/C=C(\Cl)C(F)(F)F)[C@@H]1C(=O)O[C@@H](C#N)c1cccc(Oc2ccccc2)c1 (relative stereo) [REL-LAMBDA CYHALOTHRIN] |  | 0.7 (≈ 1.56 µM) | 1.47 | 25.03 | 16.6 (≈ 36.9 µM) | 45000 | 2.12 | 6 | 23.7 |  | 1.23 |  |  | 
CNC(=O)c1cc(Cl)cc(C)c1NC(=O)c1cc(Br)nn1-c1ncccc1Cl [CHLORANTRANILIPROLE] |  | 0.77 (≈ 1.59 µM) | 4.97 | 84.61 |  | 1 |  | 5.46 | 980000 |  |  |  |  | 
CCOCn1c(-c2ccc(Cl)cc2)c(C#N)c(Br)c1C(F)(F)F [CHLORFENAPYR] |  | 2.37 (≈ 5.81 µM) | 6.83 | 116.34 | 53.3 (≈ 131 µM) | 14000 | 21.58 | 1.78 | 22.5 |  | 12.48 |  |  | Active
CCOP(=S)(OCC)Oc1nc(Cl)c(Cl)cc1Cl [CHLORPYRIFOS] |  | 1.18 (≈ 3.37 µM) | 1.26 | 21.52 | 1.4 (≈ 3.99 µM) | 550000 | 1.73 | 3.57 | 1.2 |  | 1 |  |  | Active
CC1(C)[C@H](C(=O)O[C@H](C#N)c2cccc(Oc3ccccc3)c2)[C@@H]1C=C(Br)Br [DELTAMETHRIN] |  | 0.18 (≈ 0.356 µM) | 2.63 | 44.84 | 22.6 (≈ 44.7 µM) | 33000 |  | 23.2 | 152 |  |  |  |  | 
CCOc1ccc(C(C)(C)COCc2cccc(Oc3ccccc3)c2)cc1 [ETOFENPROX] |  | 3.37 (≈ 8.95 µM) | 1 | 17.03 | 668 (≈ 1770 µM) | 1133.5 |  | 1.25 | 198 |  |  |  |  | Active
CNC(=O)ON=C(C)SC [METHOMYL] |  | 4.21 (≈ 26 µM) | 1.71 | 29.18 | 2180 (≈ 13400 µM) | 348 |  | 1 | 517 |  |  |  |  | 

— ChEMBL document CHEMBL3044580, “Insecticide selectivity and behavioral response of the earwig Doru luteipes” (2011)
